pIC50: −log10 of the molar value. No end group written: not given here.

As a reminder, the pIC50 is −log10 of the IC50, conventionally taken in molar units.

Test [1] addresses HLA-DRA1*0101, DRB1*1101 (DR11) (Homo sapiens, UniProt P01903+P01911, A100R/A169T/A87E/I96F/K41T/L162R/M171V/P40S/Q125H/Q178H/Q39Y/Q99D/R42S/S66Y/T262R/V115G/W38E). The experiment in a line: DR11. The protocol:
(§1) Table printed on a drawing sheet, Figure 9
(§2) The patent's description of the figure: FIG. 9: Diverse patterns of in vitro peptide-MHC II binding for peptides 9K1, 17JK and 15N3K. Binding of peptides 9K1, 17JK and 15N3K to recombinant HLA-DRA1*0101, DRB1*0101 (DR1), DRB1*1501 (DR2), DRB1*0301 (DR3), DRB1*0401 (DR4), DRB1*1101 (DR11), DRB1*0405 (DR4*05) and DRB1*0901 (DR9) was assessed in vitro. IC50 values (µM) are presented and colour-coded per HLA-DR molecule. Low values (green) indicate strong binding, high values (red) indicate low(er) binding.
FIG. 9 depicts IC50 (µM) values of peptides 9K1K, 17JK and 15N3K binding to the indicated HLA-DR molecules and competing with a known competitor peptide. Values should be compared only within each HLA-DR molecule. Low IC50 values (green) indicate the strongest binder per HLA-DR molecule. Highest values per HLA-DR molecule (red) are indicative of the lowest binder for that HLA-DR molecule. Intermediate values are indicated in orange. […]
(§3) First copying reader's note: The sheet prints no unit; per the patent description the values are IC50 (µM) for peptide binding to the named HLA-DR molecules, with cell shading coding relative binding strength per HLA-DR molecule.
Where the first naming reader finds the target: description_of_the_figure: recombinant HLA-DRA1*0101, DRB1*0101 (DR1), DRB1*1501 (DR2), DRB1*0301 (DR3), DRB1*0401 (DR4), DRB1*1101 (DR11)

For test [2], the target named is HLA-DRA1*0101, DRB1*0901 (DR9) (Homo sapiens, UniProt P01903+P01911, A100R/A103E/D57H/D86V/F55Y/F60I/F76Y/I96F/K127E/L162R/M171V/P40D/Q125H/Q99R/R33Q/R42F/S133A/S66N/T210M/V115G/W38K/Y107V/Y59G/Y89S). The test can be described thus: DR9. The protocol:
as §1, §2
FIG. 9 depicts IC50 (µM) values of peptides 9K1K, 17JK and 15N3K binding to the indicated HLA-DR molecules and competing with a known competitor peptide. Values should be compared only within each HLA-DR molecule. Low IC50 values (green) indicate the strongest binder per HLA-DR molecule. Highest values per HLA-DR molecule (red) are indicative of the lowest binder for that HLA-DR molecule. Intermediate values are indicated in orange. […] So, combining the peptides into a cocktail treatment, makes the treatment less restricted to a certain HLA-DR type.
as §3

Test [3] deals with SAg-specific hybridoma cells with fresh or fixed APC (VAVY) cells, MHCII. The test can be described thus: Antigen processing independent presentation system (APIPS) assay. The test is classed as cell-based, DR3tg mice. As to conditions: 10 or 25 µg/ml peptide, IL-2 ELISA after 48 h. The protocol:
FIG. 10: Variants of peptide 15N3K are apitopes. The ability of variants of the 15N3K peptide to behave as apitopes (i.e. bind to an MHCII molecule and be presented to a T cell by an antigen-presenting cell without undergoing antigen processing) was tested using an APIPS assay. DR3tg mice were immunised with SAg and hybridoma’s were generated. 5*10^4 SAg-specific hybridoma cells were cultured with 5*10^4 fresh or fixed commercial APC (VAVY) cells. Cultures were stimulated with 10 or 25 µg/ml of peptide, as indicated in the graph. T cell activation was measured by IL-2 ELISA on supernatants collected after 48 h. The graph represents the mean of duplicate measurements ± SEM.
Apitopes (Antigen Processing-Independent epiTOPES) are capable of binding to an MHCII molecule and stimulating a response from SAg-specific T cells without further antigen processing. Variants of peptide 15N3K (SEQ ID NO: 3) were tested for their ability to bind to an MHCII molecule and be presented to a T cell hybridoma without further antigen processing in an in vitro antigen processing independent presentation system (APIPS) assay. In other words, peptides consisting of parts of peptide 15N3K and peptides with various degrees of sequence identity with peptide 15N3K were tested for their ability to behave as apitopes.
All but three of the peptides are apitopes.
Antigen-specific hybridoma clones were tested for their reactivity to the peptides, presented by fixed or not fixed (fresh) cells (APCs). 5x10^4 cells were cultured with 10 µg/ml and 25 µg/ml peptide and 5x10^4 fixed or fresh APCs. To fix APCs, cells were incubated with 0.5% paraformaldehyde (Merck, Darmstadt, Germany) (pH7) for 5 min at room temperature (RT). The fixation reaction was stopped by adding 0.4 M glycine (Sigma-Aldrich) and washing the cells in RPMI-10% FCS. After 48 h, antigen-induced IL-2 production was measured by ELISA (R&D Systems, Abingdon, UK).
In general terms: An ELISA detects its analyte on a solid surface through an enzyme-linked reagent.

Sequence of HLA-DRA1*0101, DRB1*1101 (DR11) (P01903 26-254 limits assumed, other chains not shown): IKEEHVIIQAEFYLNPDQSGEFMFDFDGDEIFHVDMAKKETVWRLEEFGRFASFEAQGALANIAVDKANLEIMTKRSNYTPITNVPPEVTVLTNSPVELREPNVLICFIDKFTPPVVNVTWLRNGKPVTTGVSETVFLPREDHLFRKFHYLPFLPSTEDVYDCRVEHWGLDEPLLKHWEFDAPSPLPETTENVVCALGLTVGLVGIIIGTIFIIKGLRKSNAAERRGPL

In test [1], KKKLTFRRDLYFSRVQVYKKK-NH2 [17JK] gave a pIC50 of 6.06. KKKVIFKKISRDKSVTIYLGKKK-NH2 [15N3K] showed a pIC50 in test [2] of 4.73. For the same substance, the Apitope result in test [3] is “Yes”.

Source of the values: patent US20230203126A1, “A COMPOSITION COMPRISING S-ARRESTIN PEPTIDES” (WORG PHARMACEUTICALS (HANGZHOU) CO., LTD., priority 2019, published 2023).
